Results from article PMC3390782 (Angewandte Chemie (International Ed. in English), 2012).
Values after ≈ are worked out from the molar mass of the structure shown.

Key:
[1] = test system: S. enterica ATCC14028; experiment: MIC, antibacterial activity; assay type: cell-based; conditions: strain U, Gram-negative
[2] = test system: S. pyogenes serotype M12 (strain MGAS9429); experiment: MIC, antibacterial activity; assay type: cell-based
[3] = test system: E. faecalis ATCC29212; experiment: MIC, antibacterial activity; assay type: cell-based
[4] = test system: E coli BL21 (DE3) with pET22b; experiment: MIC, antibacterial activity; assay type: cell-based
[5] = test system: Shigella clinical isolate 6831; experiment: MIC, antibacterial activity; assay type: cell-based
[6] = test system: E. coli BL21 (DE3) with AAC(6')/APH(2”)-pET22b; experiment: MIC, antibacterial activity; assay type: cell-based
[7] = test system: E. coli TolC; experiment: MIC, antibacterial activity; assay type: cell-based
[8] = test system: B. subtilis 168; experiment: MIC, antibacterial activity; assay type: cell-based; conditions: strain F, Gram-positive
[9] = test system: E. coli BL21 (DE3) with Eis; experiment: MIC, antibacterial activity; assay type: cell-based
[10] = test system: VRE; experiment: MIC, antibacterial activity; assay type: cell-based, Enterococcus; conditions: strain J, Gram-positive
[11] = test system: L. monocyfogenes ATCC19115; experiment: MIC, antibacterial activity; assay type: cell-based, L. monocytogenes; conditions: strain L, Gram-positive
[12] = test system: MRSA; experiment: MIC, antibacterial activity; assay type: cell-based, Staphylococcus aureus; conditions: strain C, Gram-positive
[13] = test system: B. anthracis 34F2 Sterne strain; assay type: cell-based; conditions: strain I, Gram-positive
[14] = test system: B. subtilis 168 with AAC(6')/APH(2”)-pRB374; experiment: MIC, antibacterial activity; assay type: cell-based; conditions: strain G, Gram-positive
[15] = test system: S. aureus NorA; experiment: MIC, antibacterial activity; assay type: cell-based
[16] = test system: E. coli BL21 (DE3); experiment: MIC, antibacterial activity; assay type: cell-based
[17] = test system: E. coli BL21 (DE3) with AAC(3)-IV-lnt-pET19b-pps; experiment: MIC, antibacterial activity; assay type: cell-based
[18] = test system: S. epidermidis AJCCM228; experiment: MIC, antibacterial activity; assay type: cell-based
[19] = test system: B. cereus ATCC11778; experiment: MIC, antibacterial activity; assay type: cell-based; conditions: strain H, Gram-positive
[20] = test system: E. coli MC1061; experiment: MIC, antibacterial activity; assay type: cell-based
[21] = test system: S. mutans UA159; experiment: MIC, antibacterial activity; assay type: cell-based
[22] = test system: human RBCs; experiment: Hemolysis assay; conditions: 1 h at 37 °C
[23] = test system: rat RBCs; experiment: Hemolysis assay; conditions: 1 h at 37 °C
[24] = test system: S. pyogenes; experiment: Time of kill assay; assay type: cell-based; conditions: at MIC (4e 2.3 μg/mL, TOB 18.8 μg/mL); after 3 hours of incubation
[25] = test system: S. mutans UA159; experiment: Time of kill assay; assay type: cell-based; conditions: at MIC (4e 2.3 μg/mL, TOB 75 μg/mL); after 5 hours of incubation
[26] = test system: B. subtilis with constitutive YFP expression (PY79); experiment: Fluorescence microscopy of YFP-expressing bacteria; assay type: cell-based
[27] = test system: luciferase translation in lysates of E. coli; conditions: read-out: IC50, inhibition of luciferase translation; cited from earlier work

Structure (SMILES)	MIC [1]	MIC ([2]; strain D, Gram-positive)	MIC ([3]; strain K, Gram-positive)	MIC ([4]; strain N, Gram-negative)	MIC ([6]; strain O, Gram-negative)	MIC ([7]; strain R, Gram-negative)	MIC [8]	MIC ([9]; strain Q, Gram-negative)	MIC [10]	MIC [11]	MIC [12]	MIC [13]	MIC [14]	MIC ([15]; strain B, Gram-positive)	MIC ([16]; strain M, Gram-negative)	MIC ([17]; strain P, Gram-negative)	MIC [19]	MIC ([20]; strain S, Gram-negative)	MIC ([21]; strain E, Gram-positive)	other results
CCCCCCCCSCC1OC(OC2C(N)CC(N)C(OC3OC(CN)C(O)CC3N)C2O)C(O)C(N)C1O (stereo not drawn) [4b]	>150 µg/mL	150 µg/mL (≈ 252 µM)	>150 µg/mL	>150 µg/mL	>150 µg/mL	9.4 µg/mL (≈ 15.8 µM)	37.5 µg/mL (≈ 62.9 µM)	>150 µg/mL	>150 µg/mL	>150 µg/mL	>150 µg/mL	75 µg/mL (≈ 126 µM)	>150 µg/mL	150 µg/mL (≈ 252 µM)	>150 µg/mL	>150 µg/mL	150 µg/mL (≈ 252 µM)	75 µg/mL (≈ 126 µM)	150 µg/mL (≈ 252 µM)	MIC ([5]; strain T, Gram-negative): >150 µg/mL; MIC ([18]; strain A, Gram-positive): 75 µg/mL (≈ 126 µM)
CCCCCCCCCCSCC1OC(OC2C(N)CC(N)C(OC3OC(CN)C(O)CC3N)C2O)C(O)C(N)C1O (stereo not drawn) [4c]							37.5 µg/mL (≈ 60.1 µM)			37.5 µg/mL (≈ 60.1 µM)	75 µg/mL (≈ 120 µM)			37.5 µg/mL (≈ 60.1 µM)	75 µg/mL (≈ 120 µM)		18.8 µg/mL (≈ 30.1 µM)			
CCCCCCCCCCCCSCC1OC(OC2C(N)CC(N)C(OC3OC(CN)C(O)CC3N)C2O)C(O)C(N)C1O (stereo not drawn) [4d]										18.8 µg/mL (≈ 28.8 µM)	37.5 µg/mL (≈ 57.5 µM)				18.8 µg/mL (≈ 28.8 µM)			18.8 µg/mL (≈ 28.8 µM)		
CCCCCCCCCCCCCCSC[C@H]1O[C@H](O[C@@H]2[C@@H](O)[C@H](O[C@H]3O[C@H](CN)[C@@H](O)C[C@H]3N)[C@@H](N)C[C@H]2N)[C@H](O)[C@@H](N)[C@@H]1O [4e]	37.5 µg/mL (≈ 55.1 µM)	2.3 µg/mL (≈ 3.38 µM)	75 µg/mL (≈ 110 µM)	4.7 µg/mL (≈ 6.91 µM)	4.7 µg/mL (≈ 6.91 µM)	4.7 µg/mL (≈ 6.91 µM)		4.7 µg/mL (≈ 6.91 µM)	18.8 µg/mL (≈ 27.6 µM)	9.4 µg/mL (≈ 13.8 µM)	9.4 µg/mL (≈ 13.8 µM)	0.3 µg/mL (≈ 0.441 µM)	4.7 µg/mL (≈ 6.91 µM)	9.4 µg/mL (≈ 13.8 µM)	4.7 µg/mL (≈ 6.91 µM)	2.3 µg/mL (≈ 3.38 µM)		4.7 µg/mL (≈ 6.91 µM)	2.3 µg/mL (≈ 3.38 µM)	hemolysis of human RBCs ([22]; 18.8 μg/mL): 14.3 ± 1.7%; hemolysis of rat RBCs ([23]; 18.8 μg/mL): 19.5 ± 0.3%; Time of kill: viable bacteria after incubation [24]: no viable bacteria remained; Time of kill: viable bacteria after incubation [25]: no viable bacteria remained; Cell viability / YFP fluorescence by microscopy [26]: a significant drop in fluorescence
CCCCCCCCCCCCS(=O)(=O)CC1OC(OC2C(N)CC(N)C(OC3OC(CN)C(O)CC3N)C2O)C(O)C(N)C1O (stereo not drawn) [6d]	>150 µg/mL	18.8 µg/mL (≈ 27.5 µM)	9.4 µg/mL (≈ 13.7 µM)	>150 µg/mL	>150 µg/mL	2.3 µg/mL (≈ 3.36 µM)	4.7 µg/mL (≈ 6.87 µM)	>150 µg/mL	75 µg/mL (≈ 110 µM)	9.4 µg/mL (≈ 13.7 µM)	75 µg/mL (≈ 110 µM)	2.3 µg/mL (≈ 3.36 µM)	>150 µg/mL	37.5 µg/mL (≈ 54.8 µM)	75 µg/mL (≈ 110 µM)	>150 µg/mL	9.4 µg/mL (≈ 13.7 µM)	18.8 µg/mL (≈ 27.5 µM)	9.4 µg/mL (≈ 13.7 µM)	MIC ([5]; strain T, Gram-negative): >150 µg/mL; MIC ([18]; strain A, Gram-positive): 9.4 µg/mL (≈ 13.7 µM)
CCCCCCCCCCCCCCS(=O)(=O)CC1OC(OC2C(N)CC(N)C(OC3OC(CN)C(O)CC3N)C2O)C(O)C(N)C1O (stereo not drawn) [6e]									37.5 µg/mL (≈ 52.7 µM)		18.8 µg/mL (≈ 26.4 µM)			18.8 µg/mL (≈ 26.4 µM)	18.8 µg/mL (≈ 26.4 µM)					
NC[C@H]1O[C@H](O[C@H]2[C@H](O)[C@@H](O[C@H]3O[C@H](CO)[C@@H](O)[C@H](N)[C@H]3O)[C@H](N)C[C@@H]2N)[C@H](N)C[C@@H]1O [TOB, tobramycin, reference compound]					>150 µg/mL															MIC ([2]; Streptococcus pyogenes): 18.8 µg/mL (≈ 40.2 µM); MIC ([3]; Enterococcus faecalis, ATCC29212): 150 µg/mL (≈ 321 µM); hemolysis of human RBCs ([22]; 75 μg/mL): no measurable hemolysis; IC50 [27]: ~20 nM; MIC ([4]; Escherichia coli): 9.4 µg/mL (≈ 20.1 µM); MIC ([5]; Shigella): 18.8 µg/mL (≈ 40.2 µM); MIC ([6]; Escherichia coli): > 150 µg/mL; MIC ([7]; Escherichia coli): 4.7 µg/mL (≈ 10.1 µM); MIC ([9]; Escherichia coli): 18.8 µg/mL (≈ 40.2 µM); MIC ([10]; Enterococcus, VRE): ≥ 150 µg/mL; hemolysis of rat RBCs ([23]; 75 μg/mL): no measurable hemolysis; MIC ([12]; Staphylococcus aureus, MRSA): ≥ 150 µg/mL; Time of kill: viable bacteria after incubation [24]: almost no reduction in bacterial growth; Time of kill: viable bacteria after incubation [25]: almost no reduction in bacterial growth; MIC ([15]; Staphylococcus aureus): 9.4 µg/mL (≈ 20.1 µM); MIC ([16]; Escherichia coli): 4.7 µg/mL (≈ 10.1 µM); MIC ([17]; Escherichia coli): 150 µg/mL (≈ 321 µM); MIC ([18]; Staphylococcus epidermidis, AJCCM228): 0.3 µg/mL (≈ 0.642 µM); MIC ([20]; Escherichia coli, MC1061): 9.4 µg/mL (≈ 20.1 µM); MIC ([21]; Streptococcus mutans, UA159): 75 µg/mL (≈ 160 µM)
